Laboratory results from patent US20160213684A1, “SOLID DISPERSION OF A SELECTIVE MODULATOR OF THE PROGESTERONE RECEPTOR” (LABORATOIRE HRA-PHARMA, priority 2012, published 2016).

How the values were obtained:
[1] = in vitro dissolution test (paddle dissolution device, hard gelatin capsule with 30 mg UPA); format: physicochemical; conditions: for Percentages of UPA released, expressed relative to the initial amount of UPA contained per capsule: 900 ml medium at gastric pH, 0.1% SDS, 37°C, 50 rpm, mean of 3 experiments
Protocol: The in vitro dissolution test can be carried out using any commercially available dissolution device comprising paddles. Example 1 hereinafter presents implementing conditions for determining the in vitro dissolution rate of a solid dispersion according to the invention. Briefly, an amount of solid dispersion representing 30 mg of active ingredient is placed in a gelatin capsule. This gel capsule is then placed in 900 ml of a medium buffered at gastric pH, comprising 0.1% of SDS, at 37±0.5° C., and subjected to stirring at 50 revolutions per minute (rpm) (speed of rotation of the paddles of the dissolution device). The dissolution of the active ingredient in the medium can be monitored by spectrophotometry, preferably at the maximum wavelength of absorbance. A gastric pH is typically a pH of 1 to 3.
For each solid dispersion obtained by means of the “solvent evaporation” method (§1.b) above), hard gelatin capsules containing an amount of solid dispersion corresponding to 30 mg of UPA per capsule were prepared.
The dissolution profiles were obtained as follows:
Each capsule containing a solid dispersion was placed in a bowl of the paddle dissolution device containing 900 ml of a dissolution medium. The dissolution medium is an aqueous solution buffered at gastric pH and comprising 0.1% by weight of SDS. The conditions for carrying out the in vitro dissolutions are the following: • Paddle rotation speed: 50 revolutions per minute (rpm); • Temperature: 37° C.±0.5° C.
The dissolution of the UPA was monitored by spectrophotometry.
By way of control experiment, a gelatin capsule containing 30 mg of micronized ulipristal acetate was used. For each solid dispersion evaluated, the dissolution experiment was reproduced 3 times.

[2] = single dose of 30 mg, within 120 hours following unprotected or poorly protected sexual intercourse; cited from earlier work
uterine fibromas = conditions: chronic administration, 5 mg or 10 mg per day; cited from earlier work

Structure (SMILES): CC(=O)O[C@]1(C(C)=O)CCC2C3CCC4=CC(=O)CCC4=C3[C@@H](c3ccc(N(C)C)cc3)C[C@@]21C (stereo partly drawn) [Micronized UPA, 17α-acetoxy-11β-[4-(N,N-dimethylamino)phenyl]-19-norpregna-4,9-diene-3,20-dione]
- percentage of ulipristal acetate released into the medium ([1]; t=20 min as stated in the text, capsule): approximately 42%
- Percentages of UPA released, expressed relative to the initial amount of UPA contained per capsule ([1]; time 0 min): 0%
- Percentages of UPA released, expressed relative to the initial amount of UPA contained per capsule ([1]; time 1 min): 0.23%
- Percentages of UPA released, expressed relative to the initial amount of UPA contained per capsule ([1]; time 5 min): 5.69%
- Percentages of UPA released, expressed relative to the initial amount of UPA contained per capsule ([1]; time 7.5 min): 15.28%
- Percentages of UPA released, expressed relative to the initial amount of UPA contained per capsule ([1]; time 10 min): 21.73%
- Percentages of UPA released, expressed relative to the initial amount of UPA contained per capsule ([1]; time 15 min): 29.46%
- Percentages of UPA released, expressed relative to the initial amount of UPA contained per capsule ([1]; time 20 min): 35.2%
- Percentages of UPA released, expressed relative to the initial amount of UPA contained per capsule ([1]; time 30 min): 42.14%
- Percentages of UPA released, expressed relative to the initial amount of UPA contained per capsule ([1]; time 45 min): 49.98%
- Percentages of UPA released, expressed relative to the initial amount of UPA contained per capsule ([1]; time 60 min): 55.62%
- prevention of unwanted pregnancy [2]: makes it possible to prevent an unwanted pregnancy
- symptoms associated with uterine fibromas (uterine fibromas): significantly reduce the symptoms associated with uterine fibromas
- therapeutic benefit versus the reference treatment leuprolide acetate (uterine fibromas): greater than that of the reference treatment
